Results on 9 cell lines are retold here after the supplement of paper PMC10307832.

Holding throughout (assay): relative viability (nuclei count vs DMSO), 5 days (fraction); higher = more cells survive
Compound in test [1]: Cn1nnc2c(C(N)=O)ncn2c1=O [Temozolomide] + C[C@]1(O)C[C@@H](c2nc(-c3ccc4ccc(-c5ccccc5)nc4c3)c3c(N)nccn32)C1 [Linsitinib] (partner 1 µM)
A digest of the protocol:
(§1)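 Lung cancer cell lines were pin-tool dosed in 1536-well plates on the day after seeding, with either a lone drug or a fixed anchor-drug dose plus five library-drug doses (not always all listed) in √10 steps. Nuclei were counted on 4× images after 5 days. Relative viability is the ratio of treated-well to vehicle-well nuclei counts, with each value a median of duplicate plates.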

Compound in the test “AZD5582 + Luminespib”: C[C@@H](C(=O)N[C@@H](C1CCCCC1)C(=O)N2CCC[C@H]2C(=O)N[C@@H]3[C@@H](CC4=CC=CC=C34)OCC#CC#CCO[C@@H]5CC6=CC=CC=C6[C@@H]5NC(=O)[C@@H]7CCCN7C(=O)[C@H](C8CCCCC8)NC(=O)[C@H](C)NC)NC [AZD5582] + CCNC(=O)c1noc(-c2cc(C(C)C)c(O)cc2O)c1-c1ccc(CN2CCOCC2)cc1 [Luminespib] (partner 0.01 µM)
A digest of the protocol: as §1

Compound in the test “AZD5582 + Decitabine”: C[C@@H](C(=O)N[C@@H](C1CCCCC1)C(=O)N2CCC[C@H]2C(=O)N[C@@H]3[C@@H](CC4=CC=CC=C34)OCC#CC#CCO[C@@H]5CC6=CC=CC=C6[C@@H]5NC(=O)[C@@H]7CCCN7C(=O)[C@H](C8CCCCC8)NC(=O)[C@H](C)NC)NC [AZD5582] + Nc1ncn([C@H]2C[C@H](O)[C@@H](CO)O2)c(=O)n1 [Decitabine] (partner 2 µM)
A digest of the protocol:
as §1

Compound in the test “AZD5582 + Phenformin”: C[C@@H](C(=O)N[C@@H](C1CCCCC1)C(=O)N2CCC[C@H]2C(=O)N[C@@H]3[C@@H](CC4=CC=CC=C34)OCC#CC#CCO[C@@H]5CC6=CC=CC=C6[C@@H]5NC(=O)[C@@H]7CCCN7C(=O)[C@H](C8CCCCC8)NC(=O)[C@H](C)NC)NC [AZD5582] + N=C(N)NC(=N)NCCc1ccccc1 [Phenformin] (partner 250 µM)
Summed up:
as §1

For RERF-LC-KJ, the relative viability was 0.928 in test [1] (first compound 0.2 µM); 0.888 in test [1] (first compound 0.6325 µM); 0.948 in test [1] (first compound 2 µM); 0.982 in test [1] (first compound 6.325 µM); 0.868 in test [1] (first compound 20 µM); 1.22 in the test with AZD5582 + Luminespib (first compound 0.01581 µM). Also, the relative viability was 1.06 with AZD5582 + Luminespib (first compound 0.05 µM); 0.779 with AZD5582 + Decitabine (first compound 0.01581 µM); 0.208 with AZD5582 + Decitabine (first compound 0.05 µM); 0.35 with AZD5582 + Phenformin (first compound 0.01581 µM); 0.197 with AZD5582 + Phenformin (first compound 0.05 µM).
On to NCI-H727, for which the relative viability worked out at 0.287 in test [1] (first compound 0.2 µM); 0.329 in test [1] (first compound 0.6325 µM); 0.196 in test [1] (first compound 2 µM); 0.224 in test [1] (first compound 6.325 µM); 0.233 in test [1] (first compound 20 µM); 0.67 with AZD5582 + Luminespib (first compound 0.001581 µM). Besides, the relative viability with AZD5582 + Luminespib (first compound 0.005 µM) is 0.236; in the test with AZD5582 + Luminespib (first compound 0.01581 µM), 0.507; with AZD5582 + Luminespib (first compound 0.05 µM), 0.311; with AZD5582 + Decitabine (first compound 0.001581 µM), 0.965; with AZD5582 + Decitabine (first compound 0.005 µM) it was 0.856; in the test with AZD5582 + Decitabine (first compound 0.01581 µM) it was 0.801. Further, the relative viability with AZD5582 + Decitabine (first compound 0.05 µM) was found to be 0.921; in the test with AZD5582 + Phenformin (first compound 0.001581 µM), 0.518; with AZD5582 + Phenformin (first compound 0.005 µM), 1.28; with AZD5582 + Phenformin (first compound 0.01581 µM), 0.632; with AZD5582 + Phenformin (first compound 0.05 µM), 0.673.
As to NCI-H1651, the relative viability in test [1] (first compound 0.2 µM) was found to be 0.998; in test [1] (first compound 0.6325 µM), 0.99; in test [1] (first compound 2 µM), 1.14; in test [1] (first compound 6.325 µM), 1.04; in test [1] (first compound 20 µM), 0.969; with AZD5582 + Luminespib (first compound 0.001581 µM), 0.859. Also, the relative viability in the test with AZD5582 + Luminespib (first compound 0.005 µM) was 0.904; with AZD5582 + Luminespib (first compound 0.05 µM), 0.96; with AZD5582 + Decitabine (first compound 0.001581 µM), 0.572; in the test with AZD5582 + Decitabine (first compound 0.005 µM) it was 0.571; in the test with AZD5582 + Decitabine (first compound 0.01581 µM), 0.559; in the test with AZD5582 + Decitabine (first compound 0.05 µM), 0.654. Besides, the relative viability in the test with AZD5582 + Phenformin (first compound 0.001581 µM) stood at 0.353; with AZD5582 + Phenformin (first compound 0.005 µM) it was 0.339; in the test with AZD5582 + Phenformin (first compound 0.05 µM) it was 0.435.
As to LCLC-97TM1, the relative viability was 0.191 in test [1] (first compound 0.2 µM); 0.19 in test [1] (first compound 0.6325 µM); 0.173 in test [1] (first compound 2 µM); 0.176 in test [1] (first compound 6.325 µM); 0.203 in test [1] (first compound 20 µM); 0.766 with AZD5582 + Luminespib (first compound 0.001581 µM). In addition, the relative viability in the test with AZD5582 + Luminespib (first compound 0.005 µM) was 0.794; with AZD5582 + Luminespib (first compound 0.01581 µM), 0.785; with AZD5582 + Luminespib (first compound 0.05 µM) it was 0.857; with AZD5582 + Decitabine (first compound 0.001581 µM) it was 0.216; with AZD5582 + Decitabine (first compound 0.005 µM), 0.189; with AZD5582 + Decitabine (first compound 0.01581 µM), 0.243. The relative viability was 0.0933 in the test with AZD5582 + Decitabine (first compound 0.05 µM); 0.402 with AZD5582 + Phenformin (first compound 0.001581 µM); 0.467 in the test with AZD5582 + Phenformin (first compound 0.005 µM); 0.2 in the test with AZD5582 + Phenformin (first compound 0.01581 µM); 0.409 with AZD5582 + Phenformin (first compound 0.05 µM).
As to NCI-H1734, the relative viability amounted to 0.824 in test [1] (first compound 0.2 µM); 0.811 in test [1] (first compound 0.6325 µM); 0.986 in test [1] (first compound 2 µM); 0.865 in test [1] (first compound 6.325 µM); 0.845 in test [1] (first compound 20 µM); 0.172 in the test with AZD5582 + Luminespib (first compound 0.001581 µM). Also, the relative viability in the test with AZD5582 + Luminespib (first compound 0.005 µM) is 0.192; with AZD5582 + Luminespib (first compound 0.01581 µM), 0.17; in the test with AZD5582 + Luminespib (first compound 0.05 µM), 0.188; with AZD5582 + Decitabine (first compound 0.001581 µM) it was 0.479; with AZD5582 + Decitabine (first compound 0.005 µM) it was 0.527; with AZD5582 + Decitabine (first compound 0.01581 µM), 0.484. The relative viability with AZD5582 + Decitabine (first compound 0.05 µM) came to 0.514; with AZD5582 + Phenformin (first compound 0.001581 µM), 0.418; with AZD5582 + Phenformin (first compound 0.005 µM), 0.516; with AZD5582 + Phenformin (first compound 0.01581 µM), 0.37; in the test with AZD5582 + Phenformin (first compound 0.05 µM) it was 0.455.
With NCI-H2126, the relative viability stood at 0.691 in test [1] (first compound 0.2 µM); 0.712 in test [1] (first compound 0.6325 µM); 0.646 in test [1] (first compound 2 µM); 0.768 in test [1] (first compound 6.325 µM); 0.692 in test [1] (first compound 20 µM); 0.817 with AZD5582 + Luminespib (first compound 0.001581 µM). Besides, the relative viability worked out at 0.831 with AZD5582 + Luminespib (first compound 0.005 µM); 0.84 with AZD5582 + Luminespib (first compound 0.01581 µM); 0.811 in the test with AZD5582 + Luminespib (first compound 0.05 µM); 0.53 with AZD5582 + Decitabine (first compound 0.001581 µM); 0.577 with AZD5582 + Decitabine (first compound 0.005 µM); 0.581 with AZD5582 + Decitabine (first compound 0.01581 µM). The relative viability turned out to be 0.59 with AZD5582 + Decitabine (first compound 0.05 µM); 0.489 in the test with AZD5582 + Phenformin (first compound 0.001581 µM); 0.567 with AZD5582 + Phenformin (first compound 0.005 µM); 0.497 in the test with AZD5582 + Phenformin (first compound 0.01581 µM); 0.512 with AZD5582 + Phenformin (first compound 0.05 µM).
On to PC-3 [JPC-3], for which the relative viability in test [1] (first compound 0.2 µM) came out at 0.932; in test [1] (first compound 0.6325 µM) it was 0.975; in test [1] (first compound 2 µM) it was 0.941; in test [1] (first compound 6.325 µM) it was 0.987; in test [1] (first compound 20 µM), 0.499; with AZD5582 + Luminespib (first compound 0.001581 µM) it was 0.628. Also, the relative viability with AZD5582 + Luminespib (first compound 0.005 µM) was 0.67; in the test with AZD5582 + Luminespib (first compound 0.01581 µM), 0.638; in the test with AZD5582 + Luminespib (first compound 0.05 µM) it was 0.557; with AZD5582 + Decitabine (first compound 0.001581 µM), 0.737; with AZD5582 + Decitabine (first compound 0.005 µM), 0.641; in the test with AZD5582 + Decitabine (first compound 0.01581 µM) it was 0.855. In addition, the relative viability stood at 0.431 with AZD5582 + Decitabine (first compound 0.05 µM); 0.465 with AZD5582 + Phenformin (first compound 0.001581 µM); 0.441 in the test with AZD5582 + Phenformin (first compound 0.005 µM); 0.47 with AZD5582 + Phenformin (first compound 0.01581 µM); 0.381 with AZD5582 + Phenformin (first compound 0.05 µM).
Consider NCI-H1993, for which the relative viability in test [1] (first compound 0.2 µM) came to 0.725; in test [1] (first compound 0.6325 µM), 0.727; in test [1] (first compound 2 µM) it was 0.698; in test [1] (first compound 6.325 µM), 0.744; in test [1] (first compound 20 µM) it was 0.708; in the test with AZD5582 + Luminespib (first compound 0.001581 µM), 0.848. Besides, the relative viability in the test with AZD5582 + Luminespib (first compound 0.005 µM) amounted to 1.02; with AZD5582 + Luminespib (first compound 0.01581 µM), 0.888; with AZD5582 + Luminespib (first compound 0.05 µM), 0.946; in the test with AZD5582 + Decitabine (first compound 0.001581 µM), 0.634; with AZD5582 + Decitabine (first compound 0.005 µM), 0.7; with AZD5582 + Decitabine (first compound 0.01581 µM), 0.603. The relative viability in the test with AZD5582 + Decitabine (first compound 0.05 µM) was 0.613; with AZD5582 + Phenformin (first compound 0.001581 µM), 0.535; with AZD5582 + Phenformin (first compound 0.005 µM), 0.464; with AZD5582 + Phenformin (first compound 0.01581 µM) it was 0.483; in the test with AZD5582 + Phenformin (first compound 0.05 µM), 0.532.
Take NCI-H2087: the relative viability in test [1] (first compound 0.2 µM) is 1.09; in test [1] (first compound 0.6325 µM), 0.862; in test [1] (first compound 2 µM), 1.03; in test [1] (first compound 6.325 µM), 0.826; in test [1] (first compound 20 µM), 0.949; with AZD5582 + Luminespib (first compound 0.001581 µM), 0.171. Also, the relative viability stood at 0.135 with AZD5582 + Luminespib (first compound 0.005 µM); 0.176 in the test with AZD5582 + Luminespib (first compound 0.01581 µM); 0.148 in the test with AZD5582 + Luminespib (first compound 0.05 µM); 0.336 in the test with AZD5582 + Decitabine (first compound 0.001581 µM); 0.299 in the test with AZD5582 + Decitabine (first compound 0.005 µM); 0.255 in the test with AZD5582 + Decitabine (first compound 0.01581 µM). Further, the relative viability with AZD5582 + Decitabine (first compound 0.05 µM) came out at 0.28; with AZD5582 + Phenformin (first compound 0.001581 µM), 0.423; with AZD5582 + Phenformin (first compound 0.005 µM) it was 0.49; with AZD5582 + Phenformin (first compound 0.01581 µM), 0.443; with AZD5582 + Phenformin (first compound 0.05 µM), 0.464.
